From patent US9145419B2, “Imidazopyridazinyl compounds” (Bristol-Myers Squibb Company, priority 2010, dated 2015)

Target: Human CYP17 (Homo sapiens (Human), UniProt P05093)
Assay: CYP17 Total SPA assay
Type: biochemical
Conditions: microsomes from HEK2 cells stably transfected with CYP17; 3H-Pregnenolone 1 uM, NADPH 2 mM
Method: The assays were performed in U-bottom 384-well optiplates. The final assay volume was 15 μl prepared from 7.5 μl additions of microsomes (prepared as a high-speed pellet from homogenized HEK2 cells stably transfected with CYP17), substrates (3H-Pregnenolone and NADPH) and test compounds in assay buffer (50 mM Potassium phosphate pH 7.2, 10% glycerol). The reaction was initiated by the combination of the microsomes and substrates in wells containing compound. The reaction was incubated at room temperature for 45 minutes and terminated by adding 7.5 μl of 0.2N HCl to each well. Following an incubation period of 10 minutes, anti-DHEA-coated SPA beads were added to the terminated reaction. The plate was sealed and incubated overnight with shaking at 4° C. The beads were allowed to settle in the plate for 1 hour and the plate read on a TOPCOUNT® (Perkin-Elmer) plate reader.
Inhibition data were calculated by comparison to no enzyme control reactions for 100% inhibition and vehicle-only reactions for 0% inhibition. The final concentration of reagents in the assays are NADPH, 2 mM; 3H-Pregnenolone, 1 uM; microsomes, 1.25 ug/ml; Anti-DHEA-SPA beads (0.125 mg/well) in 0.5% Triton X-100 and DMSO, 0.05%. Dose response curves were generated to determine the concentration required inhibiting 50% of enzyme activity (IC50). Compounds were dissolved at 10 mM in dimethylsulfoxide (DMSO) and evaluated at eleven concentrations, each in duplicate. IC50 values were derived by non-linear regression analysis.

Chain of Human CYP17 (P05093 whole entry): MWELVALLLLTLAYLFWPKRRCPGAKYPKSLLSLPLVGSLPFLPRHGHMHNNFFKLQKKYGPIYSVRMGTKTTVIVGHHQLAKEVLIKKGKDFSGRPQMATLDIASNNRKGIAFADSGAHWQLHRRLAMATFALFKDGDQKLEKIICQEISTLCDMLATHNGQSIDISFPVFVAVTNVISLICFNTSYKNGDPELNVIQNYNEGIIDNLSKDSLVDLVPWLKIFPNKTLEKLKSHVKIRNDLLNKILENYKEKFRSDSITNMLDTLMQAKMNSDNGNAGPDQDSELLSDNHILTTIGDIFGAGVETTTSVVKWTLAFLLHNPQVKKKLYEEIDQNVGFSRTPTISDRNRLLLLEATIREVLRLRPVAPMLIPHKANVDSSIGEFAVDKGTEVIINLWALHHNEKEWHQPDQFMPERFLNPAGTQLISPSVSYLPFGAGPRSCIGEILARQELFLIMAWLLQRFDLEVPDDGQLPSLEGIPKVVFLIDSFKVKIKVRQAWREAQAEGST

Row | Compound | IC50 [nM]
1 | Cc1ccncc1-c1ccnn2c(-c3cccc(Cl)c3)cnc12 [Example 11, 3-(3-chlorophenyl)-8-(4-methylpyridin-3-yl)imidazo[1,2-b]pyridazine] | 97
2 | Cc1ccncc1-c1ccnn2c(-c3cccc(C(F)(F)F)c3)cnc12 [Example 37, 8-(4-methylpyridin-3-yl)-3-(3-(trifluoromethyl)phenyl)imidazo[1,2-b]pyridazine] | 129
3 | COc1ccccc1-c1cnc2c(-c3cnccc3C)ccnn12 [Example 3, 3-(2-Methoxyphenyl)-8-(4-methylpyridin-3-yl)imidazo[1,2-b]pyridazine] | 16
4 | Cc1ccncc1-c1ccnn2c(-c3cc(Cl)cc(Cl)c3)cnc12 [Example 34, 3-(3,5-dichlorophenyl)-8-(4-methylpyridin-3-yl)imidazo[1,2-b]pyridazine] | 664
5 | Cc1ccncc1-c1ccnn2c(-c3ccc(F)cc3)cnc12 [Example 7, 3-(4-fluorophenyl)-8-(4-methylpyridin-3-yl)imidazo[1,2-b]pyridazine] | 56
6 | Cc1cccc(-c2cnc3c(-c4cnccc4C)ccnn23)c1 [Example 9, 8-(4-methylpyridin-3-yl)-3-m-tolylimidazo[1,2-b]pyridazine] | 120
7 | Fc1ccc(-c2cnc3c(-c4cccnc4)ccnn23)cc1 [Example 26, 3-(4-fluorophenyl)-8-(pyridin-3-yl)imidazo[1,2-b]pyridazine] | 524
8 | Cc1ccncc1-c1ccnn2c(-c3ccccc3)cnc12 [Example 1, 8-(4-Methylpyridin-3-yl)-3-phenylimidazo[1,2-b]pyridazine] | 41
9 | Cc1cc(C)cc(-c2cnc3c(-c4cnccc4C)ccnn23)c1 [Example 38, 3-(3,5-dimethylphenyl)-8-(4-methylpyridin-3-yl)imidazo[1,2-b]pyridazine] | 279
10 | Cc1ccncc1-c1ccnn2c(-c3cccs3)cnc12 [Example 35, 8-(4-methylpyridin-3-yl)-3-(thiophen-2-yl)imidazo[1,2-b]pyridazine] | 9

Tested on: testosterone levels
Assay: 1-Day Cyno PK/PD study
Type: in vivo
Conditions: cynomolgus monkeys, single oral dose 3 mg/Kg in 80% PEG-400/water, plasma, over 24 hour period
Method: 1-Day Cyno PK/PD Study Protocol
Animals: All procedures involving animals and their care were conducted in conformity with the guidelines that are in compliance with the Bristol-Myers Squibb Institutional Animal Care and Use Committee. Fully mature male cynomolgus monkeys (>4 yrs of age; 5-6 kg) were from an in-house colony. All the monkeys used had chronically implanted femoral vein access ports. For oral studies, all animals were fasted overnight prior to dosing and were fed 4 hr after dosing. All animals had free access to water and were conscious throughout the study.
Drug: For all oral pharmacokinetic studies in cynomolgus monkeys, the tested compound was formulated in polyethylene glycol (PEG 400): water (80:20, v:v) at concentrations of 1-5 mg/mL. […]
Sampling: Blood samples were collected from the femoral port, at 15, 30, and 45 min, and 1, 2, 4, 6, 8, 12, 24, 30, and 48 hr after oral administration. […] The plasma fraction was immediately separated by centrifugation (14,000 rpm, 10 min, 4° C.), frozen on dry ice, and stored at −20° C. until the samples were analyzed.
Analysis of Tested Compound: Plasma samples were thawed and treated with two volumes of acetonitrile containing internal standard. After centrifugation to remove precipitated proteins, an aliquot of supernatant was analyzed by LC/MS/MS. […]

Row | Compound | testosterone levels [ng/dL]
11 | Cc1ccncc1-c1ccnn2c(-c3ccc(F)cc3)cnc12 [Example 7, 3-(4-fluorophenyl)-8-(4-methylpyridin-3-yl)imidazo[1,2-b]pyridazine] | ~15
